Test results reported in article PMC7747594, “Protease-activated receptor-2 ligands reveal orthosteric and allosteric mechanisms of receptor inhibition” (Communications Biology, 2020).
Several values for one entry are separate records, joined by “and”; a condition that tells them apart may be missing. Equal entries are not always repeated.

How the values were obtained:
macrophages = assay: Immunohistochemistry, ED1-positive macrophages in rat paw; format: in vivo; conditions: 30 min after agonist administration
Procedure: Rat paw tissues were collected, fixed in 10% neutral-buffered formalin (Sigma-Aldrich) for 2 h at 4 °C, transferred into falcon tubes containing 25% sucrose in PBS and left overnight at 4 °C. Tissues were then embedded with Optimal Cutting Temperature compound (OCT, Sakura Finetek, USA) and stored at −80 °C before making cryo-sections for histological analysis. Frozen sections (5 µm) were made using a cryostat-microtome (Leica Biosystems, Germany). For mast cell staining, slides were briefly washed with distilled water before staining with 0.1% toluidine blue (Sigma-Aldrich, pH 2.5) for 3 min. Slides were then dehydrated and mounted in DPX mountant (Sigma-Aldrich, USA). For immunohistochemistry, slides were briefly rinsed with PBS to remove OCT. Except for tryptase staining, antigen retrieval was performed by incubating slides in citrate buffer (0.01 M, pH 6) at 95 °C for 20 min. They were then cooled down briefly and incubated with blocking medium (PBS, 0.1% Triton X-100, 10% horse serum) for 1 h at room temperature in a humidity chamber. Samples were incubated with primary antibody medium (PBS, 0.1% Triton X-100, 4% horse serum; 1:100 primary antibody including – histamine, neutrophil elastase or ED1 antibodies) overnight at 4 °C. […] Tryptase-, neutrophil elastase- and ED1-positive cells were quantified using FIJI/ImageJ 1.42q software, USA.

neutrophils = assay: Immunohistochemistry, neutrophil elastase-positive (NE+ve) neutrophils in rat paw; format: in vivo; conditions: for NE +ve cells (% max): 2f-induced rat paw oedema, individual animals (Figure 5h); for decrease of NE+ve cells by 2f-LIGRLO-NH2: pre-treatment, 30 min
Procedure: Tissues were then embedded with Optimal Cutting Temperature compound (OCT, Sakura Finetek, USA) and stored at −80 °C before making cryo-sections for histological analysis. Frozen sections (5 µm) were made using a cryostat-microtome (Leica Biosystems, Germany). […] Slides were then dehydrated and mounted in DPX mountant (Sigma-Aldrich, USA). For immunohistochemistry, slides were briefly rinsed with PBS to remove OCT. Except for tryptase staining, antigen retrieval was performed by incubating slides in citrate buffer (0.01 M, pH 6) at 95 °C for 20 min. They were then cooled down briefly and incubated with blocking medium (PBS, 0.1% Triton X-100, 10% horse serum) for 1 h at room temperature in a humidity chamber. Samples were incubated with primary antibody medium (PBS, 0.1% Triton X-100, 4% horse serum; 1:100 primary antibody including – histamine, neutrophil elastase or ED1 antibodies) overnight at 4 °C. The next day, samples were washed with PBS and incubated with the secondary antibody medium (PBS, 0.1% Triton X-100, 4% horse serum, detection antibody 1:200) for 2 h at room temperature. For tryptase staining, slides were incubated with primary antibody medium (as above with tryptase antibody at 1:100 dilution) for 4 h, then the secondary antibody medium for 2 h. Finally, slides were dried, counterstained with DAPI (Invitrogen, Australia), and sealed with clear nail polish. Primary antibodies for tryptase (AA1, ab2378, Abcam, Australia), histamine (H7403, Sigma-Aldrich, USA), neutrophil elastase (ab21595, Abcam, Australia) and ED1 (ab31630, Abcam, Australia) were purchased from commercial sources. Secondary detection antibody was purchased from Abcam, Australia.

[1] = target: T1, beta-tryptase (uniprot P20231) (Homo sapiens, UniProt P20231); assay: Tryptase enzyme activity assay; format: biochemical; conditions: 10 µM, n=1
T1 construct: made in house; host or cells: Pichia pastoris
Procedure: Tryptase Enzyme Activity Assay. The tryptase assay was carried out using beta-tryptase (uniprot P20231) produced in Pichia pastoris and using Tos-Gly-Pro-Lys-pNA as substrate (25 mM stock in ethanol) in 100 mM Tris pH 8.0, 100 mM NaCl, 10% glycerol, 0.5 mg mL-1 BSA, 0.1% DDM. Substrate (250 µM) was pre-incubated with test compound (10 µM) in assay buffer (200 ul) in clear bottom 96 well Greiner plates at room temperature. The re action was started by the addition of tryptase to a final concentration of 4.7 nM. Co nversion was recorded in a plate reader by monitoring the increase of absorption at λ = 405 nm over time. Activity was determined by linear fit of initial rate.

T1 sequence (P20231 31-275): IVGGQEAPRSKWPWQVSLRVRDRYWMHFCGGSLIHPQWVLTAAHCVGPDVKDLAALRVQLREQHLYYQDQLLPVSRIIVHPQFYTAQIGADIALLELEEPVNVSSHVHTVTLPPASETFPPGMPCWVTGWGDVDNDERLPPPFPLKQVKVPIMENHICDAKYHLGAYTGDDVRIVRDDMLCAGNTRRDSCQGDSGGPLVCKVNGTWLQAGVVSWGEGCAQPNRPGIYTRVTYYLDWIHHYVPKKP

| SMILES | number of ED1 +ve cells in rat paw tissue compared to sham (macrophages) | NE +ve cells (% max) (neutrophils) | decrease of NE+ve cells by 2f-LIGRLO-NH2 (neutrophils) | inhibition of tryptase activity [1] |
| --- | --- | --- | --- | --- |
| C[C@@H](C1CCCCC1)n1c(-c2cc3c(cc2Br)OCO3)nc2cc(C(=O)Nc3ccc(C#N)cc3)ccc21 [AZ3451] | no significant difference | 135.782 % max and 55.9949 % max and 85.0488 % max and 57.3155 % max | partially inhibited | no |
| CCCc1cc(F)ccc1C(O)c1ncc[nH]1 (centres unmarked) [AZ8838] | no significant difference | 83.5679 % max and 62.4433 % max and 139.912 % max and 107.932 % max and 66.1651 % max | partially inhibited | no |
